The record followed here is PubChem BioAssay (NCI).

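Dose response: 5 concentrations. Exposure: 48 h. Format: 96-well plates. Endpoint: linear interpolation; highest concentration if not reached. GI50 marks 50% less growth. TGI denotes the concentration required for complete inhibition of growth.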

Test systems include SN12C renal; SF-539 CNS; SK-OV-3 ovarian; NCI-H226 lung; A549 NSCLC; EKVX NSCLC; MOLT-4 leukemia; 786-0 renal; HOP-62 NSCLC; NCI-H522 lung.
Common to all, as to assay: growth of human tumour cells (NCI), 48 h

Take `CCCSc1cc(Cl)nc(N)n1`: the GI50 with SN12C renal, with SF-539 CNS, in the assay on SK-OV-3 ovarian, in the assay with NCI-H226 lung, with A549 NSCLC and with EKVX NSCLC was over 100 µM in each case. The GI50 in the assay on MOLT-4 leukemia was 94.8 µM; with 786-0 renal it was over 100 µM; with HOP-62 NSCLC, over 100 µM; with NCI-H522 lung, over 100 µM. Besides, the TGI in the assay with SN12C renal, in the assay with SF-539 CNS, in the assay with SK-OV-3 ovarian, with NCI-H226 lung, in the assay on A549 NSCLC and with EKVX NSCLC was over 100 µM throughout. The TGI in the assay on MOLT-4 leukemia, in the assay with 786-0 renal, in the assay on HOP-62 NSCLC and with NCI-H522 lung was over 100 µM each time.

Turning to `O=c1c2ccccc2c2c3c1cccc3c1cccc3c(=O)c4ccccc4c2c31`, the TGI with SN12C renal, with SF-539 CNS, in the assay with SK-OV-3 ovarian, in the assay with NCI-H226 lung, in the assay with A549 NSCLC and in the assay with EKVX NSCLC was over 100 µM in each case. Also, the TGI in the assay with MOLT-4 leukemia, with 786-0 renal, with HOP-62 NSCLC and in the assay with NCI-H522 lung was over 100 µM throughout.

Consider `COc1ccc(C2C(N)=NCC2c2ccccn2)cc1` (stereo not given), for which the TGI in the assay on SN12C renal, in the assay with SF-539 CNS, in the assay with SK-OV-3 ovarian, in the assay on NCI-H226 lung, in the assay with A549 NSCLC and in the assay on EKVX NSCLC was over 100 µM in each case. Also, the TGI in the assay on MOLT-4 leukemia, in the assay on 786-0 renal, in the assay on HOP-62 NSCLC and in the assay with NCI-H522 lung was over 100 µM throughout.

With `NS(=O)(=O)c1ccc(NC(=O)c2cccc3c(=O)c4ccccc4[nH]c23)cc1`, the TGI with SN12C renal is over 100 µM; in the assay with SF-539 CNS it was over 100 µM; with SK-OV-3 ovarian, 65.6 µM; in the assay on NCI-H226 lung it was over 100 µM; with A549 NSCLC it was over 100 µM; in the assay on EKVX NSCLC, over 100 µM. Moreover, the TGI in the assay on MOLT-4 leukemia was over 100 µM; in the assay with 786-0 renal it was over 100 µM; in the assay with HOP-62 NSCLC it was over 100 µM; in the assay with NCI-H522 lung it was 65.4 µM.

As to `CC(=O)n1c(-c2ccc(Cl)cc2)nc2c(c1=O)C(c1ccc(Cl)cc1)c1sc3c(Cl)cccc3c1O2` (stereo not given), the GI50 in the assay on SN12C renal is 0.715 µM; in the assay on SF-539 CNS it was 0.296 µM; with SK-OV-3 ovarian it was 0.352 µM; in the assay on NCI-H226 lung it was 0.323 µM; with A549 NSCLC, 0.835 µM; with EKVX NSCLC, 0.926 µM. Further, the GI50 is 0.409 µM in the assay on MOLT-4 leukemia, 0.48 µM with 786-0 renal, 0.374 µM in the assay with HOP-62 NSCLC and 0.296 µM with NCI-H522 lung. Also, the TGI in the assay with SN12C renal was 2.56 µM; with SF-539 CNS, 1.12 µM; in the assay on SK-OV-3 ovarian it was 1.95 µM; with NCI-H226 lung, 1.78 µM; with A549 NSCLC, 2.32 µM; with EKVX NSCLC it was 3.71 µM. Besides, the TGI with MOLT-4 leukemia stood at 2.54 µM; with 786-0 renal, 1.7 µM; in the assay with HOP-62 NSCLC, 1.76 µM; in the assay on NCI-H522 lung, 1.63 µM.
